Experimental data taken from the NIST ThermoML archive (doi:10.1021/je900749a).

Experiment: cn = amount concentration of the nth substance listed, in mol/dm3
Details: 300 K, Ring tensiometer

CC(CN1c2ccccc2Sc2ccccc21)N(C)C.Cl (stereo not given) [promethazine hydrochloride] + O
Details | surface tension liquid-gas [mN/m]
c1 = 0.002941 | 71.3
c1 = 0.005769 | 64.15
c1 = 0.01111 | 56.45
c1 = 0.01842 | 50.35
c1 = 0.02903 | 46.45
c1 = 0.03637 | 43.4
c1 = 0.04287 | 42.55
c1 = 0.04865 | 42.2
c1 = 0.05385 | 42.1
c1 = 0.05853 | 42.15

CN(C)CCCN1c2ccccc2Sc2ccc(Cl)cc21.Cl + O
Details | surface tension liquid-gas [mN/m]
c1 = 0.001381 | 65.7
c1 = 0.002344 | 60.5
c1 = 0.003289 | 57.15
c1 = 0.004762 | 53.4
c1 = 0.006542 | 50.5
c1 = 0.009091 | 47.15
c1 = 0.01228 | 45.2
c1 = 0.01525 | 44.15
c1 = 0.01666 | 44
c1 = 0.01803 | 44.05
c1 = 0.01936 | 44

CN(C)CCCN1c2ccccc2CCc2ccccc21.Cl + O
Details | surface tension liquid-gas [mN/m]
c1 = 0.003658 | 68.55
c1 = 0.007143 | 62.15
c1 = 0.01364 | 54.6
c1 = 0.01957 | 51.7
c1 = 0.03 | 47.05
c1 = 0.03889 | 43.75
c1 = 0.04287 | 43
c1 = 0.04655 | 42.3
c1 = 0.05 | 42.3
c1 = 0.05769 | 42.3

CN(C)CCC=C1c2ccccc2CCc2ccccc21.Cl + O
Details | surface tension liquid-gas [mN/m]
c1 = 0.001584 | 69.15
c1 = 0.003138 | 62.75
c1 = 0.009057 | 55.25
c1 = 0.01455 | 50.75
c1 = 0.02441 | 46.1
c1 = 0.02885 | 44.55
c1 = 0.03301 | 43.15
c1 = 0.0406 | 42.55
c1 = 0.04572 | 42.5
